Laboratory results reported in US6472348B1, “Pyridone derivatives and herbicides” (Kumiai Chemical Industry Co., Ltd., priority 1996, dated 2002).

What was measured:
barnyardgrass (Ec) [1] = assay: Test Example 1: herbicidal effects by paddy field soil treatment; assay type: in vivo; conditions: 100 g of the active ingredient per 10 ares, 21st day after the application, index 0-5 of Table 47;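 also: grade of growth control; 5 = at least 90%; 4 = 70 to 90%; 3 = 50 to 70%; 2 = 30 to 50%; 1 = 10 to 30%; 0 = under 10%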
Summary of the method: (§1)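 Scoring of herbicidal effect came 21 days after application of 100 g active ingredient per 10 ares to flooded (3 cm) paddy-soil pots sown with barnyardgrass, monochoria and bulrush, kept in a greenhouse.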

bulrush (Sc) = assay: as above; assay type: in vivo; conditions: 100 g of the active ingredient per 10 ares, 21st day after the application, index 0-5 of Table 47;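 also: grade of growth control; 5 = at least 90%; 4 = 70 to 90%; 3 = 50 to 70%; 2 = 30 to 50%; 1 = 10 to 30%; 0 = under 10%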
Summary of the method: as §1

monochoria (Mo) = assay: as above; assay type: in vivo; conditions: 100 g of the active ingredient per 10 ares, 21st day after the application, index 0-5 of Table 47;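 also: grade of growth control; 5 = at least 90%; 4 = 70 to 90%; 3 = 50 to 70%; 2 = 30 to 50%; 1 = 10 to 30%; 0 = under 10%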
Summary of the method: as §1

Digitaria ciliaris (Di) = assay: Test Example 2: herbicidal effects by upland field soil treatment; assay type: in vivo; conditions: 100 g of the active ingredient per 10 ares;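 also: grade of growth control; 5 = at least 90%; 4 = 70 to 90%; 3 = 50 to 70%; 2 = 30 to 50%; 1 = 10 to 30%; 0 = under 10%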
From the text: (§2) (Test on Herbicidal Effects by Upland Field Soil Treatment)

barnyardgrass (Ec) [2] = assay: as above; assay type: in vivo; conditions: 100 g of the active ingredient per 10 ares
From the text: as §2

[3] = tested on: common lambsquarters (Ch); assay: as above; assay type: in vivo; conditions: 100 g of the active ingredient per 10 ares
From the text: as §2

pale smartweed (Po) [4] = assay: as above; assay type: in vivo; conditions: 100 g of the active ingredient per 10 ares
From the text: as §2

rice flatsedge (Ci) [5] = assay: as above; assay type: in vivo; conditions: 100 g of the active ingredient per 10 ares
From the text: as §2

slender amaranth (Am) [6] = assay: as above; assay type: in vivo; conditions: 100 g of the active ingredient per 10 ares
From the text: as §2

Diaitaria ciliaris (Di) [7] = assay: Test Example 3: herbicidal effects by upland field foliage treatment; assay type: in vivo; design: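 grade of growth control; 5 = at least 90%; 4 = 70 to 90%; 3 = 50 to 70%; 2 = 30 to 50%; 1 = 10 to 30%; 0 = under 10%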
Summary of the method: (§3)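 Greenhouse test, upland conditions: seeds sown in sand pots of 120 cm^2 area and overlaid with soil; 2 weeks growth; leaves treated; herbicidal injury graded on day 14 after treatment by fixed standards.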

barnyardgrass (Ec) [8] = assay: as above; assay type: in vivo; design: scale not given here
Summary of the method: as §3

[9] = tested on: common lambsquarters (Ch); assay: as above; assay type: in vivo; design: scale not given here
Summary of the method: as §3

pale smartweed (Po) [10] = assay: as above; assay type: in vivo; design: scale not given here
Summary of the method: as §3

rice flatsedge (Ci) [11] = assay: as above; assay type: in vivo; design: scale not given here
Summary of the method: as §3

slender amaranth (Am) [12] = assay: as above; assay type: in vivo; design: scale not given here
Summary of the method: as §3

cotton (Go) = assay: Test Example 4: crop plant selectivity by upland field soil treatment (cotton), phytotoxicity; assay type: in vivo; design: scale not given here; conditions: evaluated 21st day after application
Summary of the method: (§4)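 Sand-filled pots, seeds sown then soil-covered; soil application; greenhouse culture; visual scoring of weed control and cotton injury at day 21 post-application.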

Diaitaria ciliaris (Di) [13] = assay: Test Example 4: crop plant selectivity by upland field soil treatment (cotton), herbicidal effects; assay type: in vivo; conditions: evaluated 21st day after application
Experimental: (Test on Crop Plant Selectivity by Upland Field Soil Treatment)
In a plastic pot (surface area: 600 cm^2) filled with sand, cotton (Go), Diaitaria ciliaris (Di), green foxtail (Se), pale smartweed (Po), slender amaranth (Am), common lambsquarters (Ch) and China jute (Ab) were sown and covered with soil. […] The plants were then cultured in a green house, and the evaluation of the herbicidal effects and phytotoxicity was conducted on the 21st day after the application in accordance with the standards as identified in Table 47. Symbol—represents “not tested”.

China jute (Ab) [14] = assay: as above; assay type: in vivo; design: scale not given here; conditions: evaluated 21st day after application
Summary of the method: as §4

[15] = tested on: common lambsquarters (Ch); assay: as above; assay type: in vivo; design: scale not given here; conditions: evaluated 21st day after application
Summary of the method: as §4

green foxtail (Se) [16] = assay: as above; assay type: in vivo; design: scale not given here; conditions: dose 6.3 g ai/10 a, evaluated 21st day after application
Summary of the method: as §4

pale smartweed (Po) [17] = assay: as above; assay type: in vivo; design: scale not given here; conditions: evaluated 21st day after application
Summary of the method: as §4

slender amaranth (Am) [18] = assay: as above; assay type: in vivo; design: scale not given here; conditions: evaluated 21st day after application
Summary of the method: as §4

wheat (Tr) = assay: Test Example 5: crop plant selectivity by upland field soil treatment (wheat), phytotoxicity; assay type: in vivo; design: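 grade of crop injury; 5 = at least 90%; 4 = 70 to 90%; 3 = 50 to 70%; 2 = 30 to 50%; 1 = 10 to 30%; 0 = under 10%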; conditions: dose 6.3 g ai/10a, 21st day after application
Summary of the method: (§5)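 Scores are visual ratings of herbicidal effect or wheat phytotoxicity, recorded on the 21st day after soil treatment of pots sown with wheat and weeds and kept in a greenhouse.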

China jute (Ab) [19] = assay: Test Example 5: crop plant selectivity by upland field soil treatment (wheat), herbicidal effects; assay type: in vivo; design: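 grade of growth control; 5 = at least 90%; 4 = 70 to 90%; 3 = 50 to 70%; 2 = 30 to 50%; 1 = 10 to 30%; 0 = under 10%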; conditions: dose 6.3 g ai/10a, 21st day after application
Summary of the method: as §5

[20] = tested on: common lambsquarters (Ch); assay: as above; assay type: in vivo; design: scale not given here; conditions: dose 6.3 g ai/10a, 21st day after application
Summary of the method: as §5

green foxtail (Se) [21] = assay: as above; assay type: in vivo; design: scale not given here; conditions: dose 6.3 g ai/10a, 21st day after application
Summary of the method: as §5

pale smartweed (Po) [22] = assay: as above; assay type: in vivo; design: scale not given here; conditions: dose 6.3 g ai/10a, 21st day after application
Summary of the method: as §5

slender amaranth (Am) [23] = assay: as above; assay type: in vivo; design: scale not given here; conditions: dose 6.3 g ai/10a, 21st day after application
Summary of the method: as §5

soybean (Gl) = assay: Test Example 6: crop plant selectivity by upland field soil treatment (soybean), phytotoxicity; assay type: in vivo; design: scale not given here; conditions: dose 6.3 g ai/10a, 21st day after application
Summary of the method: (§6)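 Seeds are sown in sand and covered with soil. The soil is treated with test compound. Pots are kept in a greenhouse. Weed control and soybean damage are rated visually 21 days after application.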

China jute (Ab) [24] = assay: Test Example 6: crop plant selectivity by upland field soil treatment (soybean), herbicidal effects; assay type: in vivo; design: scale not given here; conditions: dose 6.3 g ai/10a, 21st day after application
Summary of the method: as §6

[25] = tested on: common lambsquarters (Ch); assay: as above; assay type: in vivo; design: scale not given here; conditions: dose 6.3 g ai/10a, 21st day after application
Summary of the method: as §6

green foxtail (Se) [26] = assay: as above; assay type: in vivo; design: scale not given here; conditions: dose 6.3 g ai/10a, 21st day after application
Summary of the method: as §6

pale smartweed (Po) [27] = assay: as above; assay type: in vivo; design: scale not given here; conditions: dose 6.3 g ai/10a, 21st day after application
Summary of the method: as §6

slender amaranth (Am) [28] = assay: as above; assay type: in vivo; design: scale not given here; conditions: dose 6.3 g ai/10a, 21st day after application
Summary of the method: as §6

corn (Ze) = assay: Test Example 7: crop plant selectivity by upland field soil treatment (corn), phytotoxicity; assay type: in vivo; design: scale not given here; conditions: dose 6.3 g ai/10a, 21st day after application
Summary of the method: (§7)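 Values are ratings of herbicidal effect and phytotoxicity on a standard scale, taken 21 days after application. Test species were sown together with corn in sand-filled pots, covered with soil, and grown in a greenhouse.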

China jute (Ab) [29] = assay: Test Example 7: crop plant selectivity by upland field soil treatment (corn), herbicidal effects; assay type: in vivo; design: scale not given here; conditions: dose 6.3 g ai/10a, 21st day after application
Summary of the method: as §7

[30] = tested on: common lambsquarters (Ch); assay: as above; assay type: in vivo; design: scale not given here; conditions: dose 6.3 g ai/10a, 21st day after application
Summary of the method: as §7

green foxtail (Se) [31] = assay: as above; assay type: in vivo; design: scale not given here; conditions: dose 6.3 g ai/10a, 21st day after application
Summary of the method: as §7

pale smartweed (Po) [32] = assay: as above; assay type: in vivo; design: scale not given here; conditions: dose 6.3 g ai/10a, 21st day after application
Summary of the method: as §7

slender amaranth (Am) [33] = assay: as above; assay type: in vivo; design: scale not given here; conditions: dose 6.3 g ai/10a, 21st day after application
Summary of the method: as §7

[34] = 21st day after the application, index 0-5 of Table 47
[35] = 100 g of the active ingredient per 10 ares, evaluated on the 14th day after treatment
[36] = evaluated on the 21st day after application
[37] = 100 g active ingredient per 10 ares, evaluated 14th day after treatment

SMILES: CC(C)Oc1cc(-c2ccc(C(F)(F)F)n(C)c2=O)c(F)cc1Cl [Compound No. 1-14]
- Herbicidal effects Ec (barnyardgrass (Ec) [1]): 5
- Herbicidal effects Sc (bulrush (Sc)): 5
- Herbicidal effects Mo (monochoria (Mo)): 5
- Herbicidal effects Di (Digitaria ciliaris (Di); [34]): 5
- Herbicidal effects Ec (barnyardgrass (Ec) [2]; [34]): 5
- Herbicidal effects Ch [3, 34]: 5
- Herbicidal effects Po (pale smartweed (Po) [4]; [34]): 5
- Herbicidal effects Ci (rice flatsedge (Ci) [5]; [34]): 5
- Herbicidal effects Am (slender amaranth (Am) [6]; [34]): 5
- Herbicidal effects Di (Diaitaria ciliaris (Di) [7]; [35]): 5
- Herbicidal effects Ec (barnyardgrass (Ec) [8]; [35]): 5
- Herbicidal effects Ch [9, 35]: 5
- Herbicidal effects Po (pale smartweed (Po) [10]; [35]): 5
- Herbicidal effects Ci (rice flatsedge (Ci) [11]; [35]): 5
- Herbicidal effects Am (slender amaranth (Am) [12]; [35]): 5
- Phytotoxicity Go (cotton (Go); dose 1.6 g ai/10 a): 0
- Phytotoxicity Go (cotton (Go); dose 6.3 g ai/10 a): 0
- Herbicidal effects Di (Diaitaria ciliaris (Di) [13]; dose 1.6 g ai/10 a): 5
- Herbicidal effects Di (Diaitaria ciliaris (Di) [13]; dose 6.3 g ai/10 a): 5
- Herbicidal effects Ab (China jute (Ab) [14]; dose 1.6 g ai/10 a): 4
- Herbicidal effects Ab (China jute (Ab) [14]; dose 6.3 g ai/10 a): 5
- Herbicidal effects Ch ([15]; dose 1.6 g ai/10 a): 5
- Herbicidal effects Ch ([15]; dose 6.3 g ai/10 a): 5
- Herbicidal effects Se (green foxtail (Se) [16]): 5
- Herbicidal effects Po (pale smartweed (Po) [17]; dose 1.6 g ai/10 a): 5
- Herbicidal effects Po (pale smartweed (Po) [17]; dose 6.3 g ai/10 a): 5
- Herbicidal effects Am (slender amaranth (Am) [18]; dose 1.6 g ai/10 a): 5
- Herbicidal effects Am (slender amaranth (Am) [18]; dose 6.3 g ai/10 a): 5

SMILES: Cn1c(C(F)(F)F)ccc(-c2c(F)cc(Cl)c3oc(CBr)cc23)c1=O [Compound No. 4-7, 3-(2-bromomethyl-7-chloro-5-fluorobenzofuran-4-yl)-1-methyl-6-trifluoromethyl-2-(1H)-pyridone]
- Herbicidal effects Ec (barnyardgrass (Ec) [1]): 5
- Herbicidal effects Sc (bulrush (Sc)): 5
- Herbicidal effects Mo (monochoria (Mo)): 5
- Herbicidal effects Di (Digitaria ciliaris (Di); [36]): 5
- Herbicidal effects Ec (barnyardgrass (Ec) [2]; [36]): 5
- Herbicidal effects Ch [3, 36]: 5
- Herbicidal effects Po (pale smartweed (Po) [4]; [36]): 5
- Herbicidal effects Ci (rice flatsedge (Ci) [5]; [36]): 5
- Herbicidal effects Am (slender amaranth (Am) [6]; [36]): 5
- Herbicidal effects Di (Diaitaria ciliaris (Di) [7]; [37]): 5
- Herbicidal effects Ec (barnyardgrass (Ec) [8]; [37]): 5
- Herbicidal effects Ch [9, 37]: 5
- Herbicidal effects Po (pale smartweed (Po) [10]; [37]): 5
- Herbicidal effects Ci (rice flatsedge (Ci) [11]; [37]): 5
- Herbicidal effects Am (slender amaranth (Am) [12]; [37]): 5
- Phytotoxicity Go (cotton (Go); dose 6.3 g ai/10 a): 1
- Herbicidal effects Ab (China jute (Ab) [14]; dose 6.3 g ai/10 a): 5
- Herbicidal effects Ch ([15]; dose 6.3 g ai/10 a): 5
- Herbicidal effects Se (green foxtail (Se) [16]): 5
- Herbicidal effects Po (pale smartweed (Po) [17]; dose 6.3 g ai/10 a): 5
- Herbicidal effects Am (slender amaranth (Am) [18]; dose 6.3 g ai/10 a): 5
- Phytotoxicity Tr (wheat (Tr)): 1
- Herbicidal effects Ab (China jute (Ab) [19]): 5
- Herbicidal effects Ch [20]: 5
- Herbicidal effects Se (green foxtail (Se) [21]): 5
- Herbicidal effects Po (pale smartweed (Po) [22]): 5
- Herbicidal effects Am (slender amaranth (Am) [23]): 5
- Phytotoxicity Gl (soybean (Gl)): 1
- Herbicidal effects Ab (China jute (Ab) [24]): 5
- Herbicidal effects Ch [25]: 5
- Herbicidal effects Se (green foxtail (Se) [26]): 5
- Herbicidal effects Po (pale smartweed (Po) [27]): 5
- Herbicidal effects Am (slender amaranth (Am) [28]): 5
- Phytotoxicity Ze (corn (Ze)): 2
- Herbicidal effects Ab (China jute (Ab) [29]): 5
- Herbicidal effects Ch [30]: 5
- Herbicidal effects Se (green foxtail (Se) [31]): 5
- Herbicidal effects Po (pale smartweed (Po) [32]): 5
- Herbicidal effects Am (slender amaranth (Am) [33]): 5
- melting point: 142 to 144 °C
